Results reported in US20240317689A1, “POTASSIUM CHANNEL MODULATOR, COMPOSITION AND APPLICATION” (NEUSHEN THERAPEUTICS (SHANGHAI) CO., LTD, priority 2021, published 2024).

Target: T1, KCNQ2/3 potassium ion channel (Homo sapiens, UniProt O43525+O43526)
T1 construct: expressed in transfected cells; host or cells: CHO cells (hKCNQ-CHO)
Experiment: KCNQ2/3 potassium ion channel activation assay (whole-cell patch clamp, hKCNQ-CHO cells)
Type: cell-based
Settings: read-out: Enhancment % (current enhancement multiple); for activation at 3 µM: test concentration 3 μM
Description: Example 64: KCNQ2/3 Potassium Ion Channel Activation Assay
hKCNQ-CHO cells were cultured at 37° C. in a humidified environment of 5% CO2.
• 2.1. Extracellular fluid (mM): NaCl 145, KCl 4, CaCl2 2, MgCl2 1, Glucose 10, HEPES 10. The pH value of the extracellular fluid was adjusted to 7.4 with NaOH, and the osmotic pressure was adjusted to about 295 mOsm. • 2.2. Intracellular fluid (mM (mmol/L)): KOH 31.25, KCl 120, EGTA 10, MgCl2 1.75, CaCl2 5.374, HEPES 10, Na-ATP 4. The pH value of the intracellular fluid was adjusted to 7.4 with HCl, and the osmotic pressure was adjusted to about 285 mOsm. • 2.3. The extracellular fluid should be prepared once a week, and the intracellular fluid should be stored at −20° C. after preparation.
The model positive reference compound Retigabine (RTG) was dissolved with 100% DMSO and configured as a 10 mM working solution. The test compounds were dissolved with 100% DMSO and configured as a 10 mM working solution. The final concentration of DMSO in the test solution should be less than 0.3%.
Whole-cell patch clamp was performed at room temperature. The electrical signals recorded with the EPC 10 USB amplifier (HEKA Elektronik, Germany) were filtered by a 3 kHz low-pass filter, and finally recorded in PatchMaster 2×90.5 software (HEKA Elektronik, Germany). At this step, the quality control standard was that the cell high-resistance sealing was greater than 500 MOhms, and the detection current was greater than 0.4 nA.
The recording electrodes were pulled out and polished with a vertical puller (NARISHIGE PC-10, Japan) using a borosilicate glass capillary (GC150tF-10, Harvard Apparatus Co., UK). At this step, the quality control standard was that the electrode resistance was between 2 MΩ and 5 MΩ.
During the recording process of the whole-cell patch clamp, a continuous perfusion system (BT100-2J, LongerPump, China) was used to continuously perfuse the extracellular fluid. The perfusion system was installed on the stage of an upright microscope (FN-S2N, Nikon, Japan), and the perfusion head was manually positioned under the microscope.
The voltage command for detecting the amplitude of hKCNQ current was as follows: the cell stepped from the clamping potential of −80 mV to −30 mV, and held for 1500 ms; and then the clamping voltage was lowered to −120 my and held for 500 ms; finally, the voltage returned to the clamping potential of −80 mV. The detection voltage command was repeated every 15,000 milliseconds, and the command was continuously executed during the compound test. The quality control standard for compound action stability was the current amplitude under 5 consecutive voltage commands, and the coefficient of variation of the current amplitude was <5%.
Data analysis was performed using PatchMaster 2×90.5 software (HEKA Elektronik, Germany) and Excel 2013 (Microsoft, USA) software. For each cell's patch clamp recording, the amplitude of the hKCNQ channel current (Itest) corresponding to the test compound concentration should be obtained. The enhanced channel current was obtained by subtracting the cell's original channel current (Icontrol) from Itest and dividing by Icontrol to obtain the current enhancement multiple. That is, the current enhancement multiple (Enhancment %)=(Itest −Icontrol)/Icontrol[…].

activation at 3 µM [%] | activation at 0.05 µM (test concentration 0.05 μM) [%] | Compound
> 100 |  | Cc1cc(N2CCCc3cc(OC(F)(F)F)ccc3C2)cc(C)c1NC(=O)CC(C)(C)C [Compound 006, N-(2,6-dimethyl-4-(7-(trifluoromethoxy)-1,3,4,5-tetrahydro-2H-benzo[c]azepin-2-yl)phenyl)-3,3-dimethylbutanamide]
> 100 |  | Cc1cc(N2CCCc3cc(O[C@H](C)C(F)(F)F)c(F)cc3C2)cc(C)c1NC(=O)CC(C)(C)C [Compound 037, (R)—N-(4-(8-fluoro-7-((1,1,1-trifluoropropan-2-yl)oxy)-1,3,4,5-tetrahydro-2H-benzo[c]azepin-2-yl)-2,6-dimethylphenyl)-3,3-dimethylbutanamide]
50 to 100 | < 50 | CCOc1ccc2c(c1)CCCN(c1cc(C)c(NC(=O)CC(C)(C)C)c(C)c1)C2 [Compound 002, N-(4-(7-ethoxy-1,3,4,5-tetrahydro-2H-benzo[c]azepin-2-yl)-2,6-dimethylphenyl)-3,3-dimethylbutanamide]
50 to 100 |  | Cc1cc(N2CCN(C)c3cc(F)ccc3C2)cc(C)c1NC(=O)CC(C)(C)C [Compound 024, N-(4-(8-fluoro-1-methyl-1,2,3,5-tetrahydro-4H-benzo[e][1,4]diazepin-4-yl)-2,6-dimethylphenyl)-3,3-dimethylbutanamide]
> 100 |  | Cc1cc(N2CCCc3cc(F)ccc3C2)c(Cl)c(C)c1NC(=O)CC(C)(C)C [Compound 031, N-(3-chloro-4-(7-fluoro-1,3,4,5-tetrahydro-2H-benzo[c]azepin-2-yl)-2,6-dimethylphenyl)-3,3-dimethylbutanamide]
> 100 |  | COc1cc2c(cc1F)CN(c1cc(C)c(NC(=O)CC(C)(C)C)c(C)c1)CCC2 [Compound 038, N-(4-(8-fluoro-7-methoxy-1,3,4,5-tetrahydro-2H-benzo[c]azepin-2-yl)-2,6-dimethylphenyl)-3,3-dimethylbutanamide]
> 100 |  | Cc1cc(N2CCCc3cc(OC(C)C(F)(F)F)c(F)cc3C2)cc(C)c1NC(=O)CC(C)(C)C (stereo not shown) [Compound 034, N-(4-(8-fluoro-7-((1,1,1-trifluoropropan-2-yl)oxy)-1,3,4,5-tetrahydro-2H-benzo[c]azepin-2-yl)-2,6-dimethylphenyl)-3,3-dimethylbutanamide]
> 100 |  | Cc1cc(N2CCC3(CC3)c3cc(F)c(F)cc3C2)cc(C)c1NC(=O)CC(C)(C)C [Compound 049, N-(4-(7,8-difluoro-3,4-dihydrospiro[benzo[c]azepine-5,1′-cyclopropan]-2(1H)-yl)-2,6-dimethylphenyl)-3,3-dimethylbutanamide]
> 100 |  | COC(Oc1ccc2c(c1)CCCN(c1cc(C)c(NC(=O)CC(C)(C)C)c(C)c1)C2)C(F)(F)F (stereo not shown) [Compound 052, N-(2,6-dimethyl-4-(7-(2,2,2-trifluoro-1-methoxyethoxy)-1,3,4,5-tetrahydro-2H-benzo[c]azepin-2-yl)phenyl)-3,3-dimethylbutanamide]
> 100 |  | Cc1cc(N2CCCc3cc(OC4CCCC4)c(F)cc3C2)cc(C)c1NC(=O)CC(C)(C)C [Compound 044, N-(4-(7-(cyclopentyloxy)-8-fluoro-1,3,4,5-tetrahydro-2H-benzo[c]azepin-2-yl)-2,6-dimethylphenyl)-3,3-dimethylbutanamide]

Compound | activation at 3 µM [%] | activation at 0.05 µM (test concentration 0.05 μM) [%]
CCC(C)Oc1cc2c(cc1F)CN(c1cc(C)c(NC(=O)CC(C)(C)C)c(C)c1)CCC2 (stereo not shown) [Compound 039, N-(4-(7-(sec-butoxy)-8-fluoro-1,3,4,5-tetrahydro-2H-benzo[c]azepin-2-yl)-2,6-dimethylphenyl)-3,3-dimethylbutanamide] | > 100 | 
CC[C@H](C)Oc1cc2c(cc1F)CN(c1cc(C)c(NC(=O)CC(C)(C)C)c(C)c1)CCC2 [Compound 040, (S)—N-(4-(7-(sec-butoxy)-8-fluoro-1,3,4,5-tetrahydro-2H-benzo[c]azepin-2-yl)-2,6-dimethylphenyl)-3,3-dimethylbutanamide] | > 100 | 
